In patent US8058258B2, “Methods for cancer therapy and stem cell modulation” (Agency for Science, Technology and Research, priority 2006, dated 2011):

Assays:
MCF-7 cells [1] = assay: Cell death / apoptosis by PI staining and flow cytometry; assay type: cell-based, human; conditions: 5 μM; for cell death: PI staining and flow cytometry, cell line not named in the sentence (FIG. 3A)
Method: (§1) FIG. 3A depicts the detection of cell death of a variety of cancer cells upon exposure to 3-deazaneplanocin (DZNep) compared to untreated controls cells (DMSO=dimethyl sulfoxide). Breast cancer MCF-7 and MB-468 cells, colorectal HCT116, RKO and SW480 cells were treated with 5 μm 3-deazaneplanocin for 48 and 72 h, and cell death was detected by means of propodium iodide (PI) staining and flow cytometry analysis. Shown is the average of three independent experiments.
Cell lines used in these examples were purchased from the American Type Culture Collection (Manassas, Va.). Cells were maintained in DMEM supplemented with 10% fetal bovine serum with glutamine, penicillin, and streptomycin. For drug treatment, cells were seeded the day before the drug treatment. Cells were treated with 5 μM 3-Deazaneplanocin A or 2 μM 5-aza-2′-deoxycytidine (5-AzaC; Sigma) for 72 hours and trichostatin A (TSA; Sigma) at 100 nM for 24 hours. For co-treatment of cells with 5-AzaC and TSA, 5-Aza was added for 48 hours and followed by TSA for 24 hours.
(§2) Cells were trypsinised and washed with PBS and fixed in 70% ethanol and processed for propidium iodide staining and FACS analysis. For the caspase 3 activity assay and mitochondrial membrane potential detection, cells were stained with anti-active caspase 3 and JC-1, respectively, according to the manufacturer's instructions (BD Bioscience).
It was observed that 3-deazaneplanocin at 5 μM could induce 25% cell death at 48 hours and 45% of cell death at 72 hours, as determined by propodium iodide (PI) staining and flow cytometry analysis (FIG. 3A).
(§3) To determine whether 3-deazaneplanocin preferentially induces apoptosis in cancer cells, the apoptosis induction between MCF-7 cells and the non-cancerous breast epithelial MCF10A cells was compared for various periods of time. […] In addition, normal primary colon epithelial CC33D cells, like MCF10A cells, were also resistant to 3-deazaneplanocin treatment compared to colorectal cancer HCT116 cell, as evaluated by microscopy examination (FIGS. 3G & 3H).

MCF10A cells = assay: Apoptosis by FACS analysis in non-cancerous cells; assay type: cell-based; conditions: 5 μM
Method: Cells were treated with 5 μM 3-deazaneplanocin (DZNep, dark bars) for indicated times.
(§4) FIG. 6A depicts an analysis of the breast cancer cell lines MCF-7, MB-468, SK-BR-3, MB-231, T47D and BT549 for an apoptotic effect of 5 μM 3-deazaneplanocin over a time frame of 120 hours. Cell death was measured by FACS analysis. Data presented are the average of three independent experiments.
as §2, §3
To extend the observation seen in MCF-7 cells, additional breast cancer cell lines were screened, including MB-468, SK-BR-3, MB-231, T47D and BT549. […]

[2] = tested on: histone H3 methylation at lysine 9 (H3-K9); assay: Western blot of histone H3 lysine 9 methylation; assay type: cell-based, human; conditions: HCT116 or MCF-7 cells, 5 μM, 48 and 72 hours
Method: Cell lines used in these examples were purchased from the American Type Culture Collection (Manassas, Va.). Cells were maintained in DMEM supplemented with 10% fetal bovine serum with glutamine, penicillin, and streptomycin. For drug treatment, cells were seeded the day before the drug treatment. Cells were treated with 5 μM 3-Deazaneplanocin A or 2 μM 5-aza-2'-deoxycytidine (5-AzaC; Sigma) for 72 hours and trichostatin A (TSA; Sigma) at 100 nM for 24 hours. For co-treatment of cells with 5-AzaC and TSA, 5-Aza was added for 48 hours and followed by TSA for 24 hours. Cell pellets were first lysed in RadioImmuno Precipitation Assay (RIPA) buffer, consisting of an aqueous solution of 25 mM Tris-HCl pH 7.6, 150 mM NaCl, 1% Nonidet-P 40 (NP-40), 1% sodium deoxycholate and 0.1% sodium dodecylsulfate (SDS), before further sonicated using a tissue homogeniser to release all the proteins. Equal amounts of protein were separated on SDS-polyacrylamide gels and transferred to polyvinylidene difluoride (PVDF) membranes. The blots were probed with antibodies against: EED (07-368), SUZ12 (07-379), SUV39H1 (07-550), BMI1 (05-637), tri-methylated H3-K27 (07-449), tri-methylated H3-K9 (07-442) and Acetyl-Histone H3 (06-599), and were purchased from Upstate. EZH2 (AC22) and Histone H3 (3H1) were from Cell Signaling. […]

MCF-7 cells [3] = assay: Microarray gene expression analysis (Illumina BeadChip) in MCF-7 cells; assay type: cell-based, human
Method: The Smartpool siRNA duplexes of selected PRC2 targets and the non-targeting control were purchased from Dharmacon (Lafayett, Colo.). […] Cells were transfected with 50 nM final concentration of siRNA duplexes using Lipofectamine 2000 (Invitrogen) following the manufacturer's instructions.
The effects on gene expression were analysed using an Illumina Gene Expression BeadChip. […] To be inclusive for the subsequent analysis, all 1402 genes were considered to be potential PRC2 target genes.
To identify the PRC2 targets specifically repressed in breast cancer cells, the expression profiles of the 140 putative PRC2 target genes in MCF-7 cells and MCF10A cells were compared by gene clustering analysis (FIG. 4C).

MB-468 cells = assay: Cell death / apoptosis by PI staining and flow cytometry; assay type: cell-based, human
Method: as §1, §4
Cell lines used in these examples were purchased from the American Type Culture Collection (Manassas, Va.). Cells were maintained in DMEM supplemented with 10% fetal bovine serum with glutamine, penicillin, and streptomycin. For drug treatment, cells were seeded the day before the drug treatment. […]
It was observed that 3-deazaneplanocin at 5 μM could induce 25% cell death at 48 hours and 45% of cell death at 72 hours, as determined by propodium iodide (PI) staining and flow cytometry analysis (FIG. 3A). […]

[4] = tested on: PRC2 target genes in MCF-7, MB-468, SK-BR-3, T47D, MCF10A, MB-231, BT549; assay: Array analysis of PRC2 targets in sensitive and resistant breast cancer cell lines; assay type: cell-based
Method: FIG. 6B depicts the results of array analysis in these breast cancer cell lines (MCF-7, MB-468, SK-BR-3 and T47D sensitive ? MCF10A, MB-231, BT549 resistant) before and after 3-deazaneplanocin treatment. […] Genes marked in bold are highly expressed in resistant cell lines relative to sensitive cell lines.
Total RNA was isolated from cell lines using Trizol (Invitrogen) and was converted to cDNA using an RNA Amplification kit (Ambion). The microarray hybridisation was performed using the Illumina Gene Expression BeadChip (Illumina) and data analysis was performed using GeneSpring software from Agilent Technologies. Gene expression of normal and primary breast tumor samples was performed using Affymetrix U133A GeneChips (Affymetrix, Santa Clara, Calif.) following the manufacturer's instructions. Gene expression data from individual arrays were normalized by median centering and average linkage hierarchical clustering was done using Cluster and Treeview softwares (http://rana.lbl.gov/EisenSoftware.htm). Quantitative real-time PCR was performed on a PRISM 7900 sequenced detector (Applied Biosystems) using TaqMan probes (Applied Biosystems). Samples were normalized to the levels of 18S ribosomal RNA.
To extend the observation seen in MCF-7 cells, additional breast cancer cell lines were screened, including MB-468, SK-BR-3, MB-231, T47D and BT549. […] To identify the PRC2 target genes associated with the cellular sensitivity to 3-deazaneplanocin, the array analysis was performed in these breast cancer cell lines before and after 3-deazaneplanocin treatment and the expression of the 47 identified PRC2 targets profiled. It was reasoned that some the PRC2 target genes might be differentially expressed between the sensitive and resistant cell lines, which might confer the distinct sensitivity to 3-deazaneplanocin. […] Both the real time and conventional RT-PCR analysis of the 4 gene set confirmed the array data (FIGS. 6D & 6E). […]

Nc1nccc2c1ncn2C1C=C(CO)C(O)C1O (stereo not shown) [3-deazaneplanocin, 5-(4-amino-1H-imidazo[4,5-c]pyridin-1-yl)-3-(hydroxymethyl)-3-cyclopentene-1,2-diol]
cell death (MCF-7 cells [1]; 48 hours): 25% | cell death (MCF-7 cells [1]; 72 hours): 45% | apoptosis induction over various periods of time (MCF-7 cells [1]; MCF-7 cells, FACS): progressive and marked apoptosis | sensitivity to 3-deazaneplanocin-induced cell death (MCF10A cells; MCF10A, time course to 120 hours): highly resistant | apoptosis induction (MCF10A cells; non-cancerous breast epithelial MCF10A cells, up to 96 hours): no obvious apoptosis | histone H3 methylation at lysine 9 (H3-K9) [2]: not affected | expression of the 47 PRC2 target genes repressed in MCF-7 relative to MCF10A (MCF-7 cells [3]): re-expression | number of genes upregulated ≧2-fold (MCF-7 cells [3]; 72 h): 750 genes | sensitivity to 3-deazaneplanocin-induced cell death (MB-468 cells; MB-468, 5 μM, time course to 120 hours): highly susceptible | cell death (MB-468 cells; breast cancer MB-468 cells, 5 μM): obvious cell death | induction of FBXO32, LAMB3, PLAU, and PPP1R15A ([4]; four sensitive cell lines (MCF-7, MB-468, SK-BR-3, T47D)): commonly induced | induction of the same PRC2 target genes in resistant cell lines ([4]; resistant cell lines (MCF10A, MB-231, BT549)): did not undergo marked further induction | induction of TGFBI, IGFBP3, TNS3 and KRT17 ([4]; sensitive cell lines (MCF-7, MB-468, SK-BR-3, T47D)): induced in 3 out 4 sensitive cell lines
